Reference: a melting point compilation (Tetko et al.)

Row | SMILES | melting point [°C]
1 | [O-][N+](=Nc1ccc(N=Nc2ccccc2)cc1)c1ccc(N=Nc2ccc(N=Nc3ccccc3)cc2)cc1 | 253
2 | COc1cc(/C=C/[N+](=O)[O-])c([N+](=O)[O-])cc1OC | 168 to 169
3 | Cc1nc2ccccc2n1CCc1nnc(SCc2ccccc2)n1-c1ccccc1 | 130
4 | NC(=S)c1ccccc1F | 80 to 84
5 | CCCOC1CCC2C3CC=C4CC5(CCC4(C)C3CCC12C)OCCO5 (centres undefined) | 213 to 214
6 | CC(C)(C)OC(=O)N=NC(=O)OC(C)(C)C | 90 to 92
7 | Oc1c(Cl)c(Cl)c(Cl)c(Cl)c1Cl | 191
8 | CC(=O)C=Cc1ccco1 | 39.5
9 | COC(OC)(C(=O)c1ccccc1)c1ccccc1 | 66
10 | C/C(=N\Nc1ccc([N+](=O)[O-])cc1[N+](=O)[O-])c1ccccc1O | 259
11 | O=C(Oc1ccccc1)n1c(C(F)(F)F)nc2cc(Cl)c(Cl)cc21 | 103
12 | CNC(C)C1CCC(N)C(OC2C(N)CC(N)C(OC3OCC(C)(O)C(NC)C3O)C2O)O1 (centres undefined) | 105
13 | O=C=Nc1ccc(Br)cc1Cl | 71 to 75
14 | CCOC(=O)c1cnn(-c2ccc(F)cc2)c1N | 153 to 154
15 | CC1(C)C2CC3C(C2)C31C | 67.5
16 | O=C(O)C[C@@H](NC(=O)OCC1c2ccccc2-c2ccccc21)c1ccc(Br)cc1 | 192
17 | O=C1c2ccccc2C(=O)c2c1ccc1ccccc21 | 170
18 | O=[N+]([O-])c1cc(Cl)c(Cl)cc1Nc1ccccn1 | 156
19 | CN(C)C(CSC(N)=O)CSC(N)=O | 188
20 | NNC(=O)C(N)=O | 216 to 218
21 | O=C1C(=O)C(Cl)=C(Cl)C(Cl)=C1Cl | 125 to 129
22 | COc1ccc(-c2cc(=O)c3c(O)cc(O)cc3o2)cc1 | 263
23 | CNC(=O)ON=C(SC)C(=O)N(C)C | 101
24 | Cc1nn(-c2ccccc2)nc1C(=O)O | 203
25 | CC(C)(C(=O)O)C(C)(C)C(=O)O | 200
26 | Nc1nn2c(C(F)(F)F)cc(=O)[nH]c2c1/N=N/c1c(Cl)cc(Cl)cc1Cl | 275
27 | CCCCN(CCCC)CCCN | -50

Row | SMILES | melting point [°C]
28 | O=C(O)c1ccccc1OC(F)(F)F | 79
29 | CC12CCC(=O)C=C1CCC1C2CCC2(C)C(OC(=O)CCC3CCCC3)CCC12 (centres undefined) | 155
30 | O=Cc1ccc(C=O)s1 | 114 to 117
31 | O=C1CCCC(O)=C1Cl | 198 to 204
32 | N#Cc1ccc(OCc2ccc3nonc3c2)cc1 | 160 to 162
33 | O=c1ccc2cc(Cl)ccc2o1 | 165
34 | NC(=O)C(=O)O | 210
35 | CCCC1C(=O)N2C(N(C)C)=Nc3ccc(C)cc3N2C1=O (centres undefined) | 228
36 | O=C=Nc1ccc(Cl)c([N+](=O)[O-])c1 | 66
37 | O=C(O)C1CCC1C(=O)O (centres undefined) | 131
38 | Cc1ccc2cc3nc(C)ccc3cc2n1 | 237 to 238
39 | CCOC(=O)C1C(c2ccccc2O)C(C(=O)OCC)C(O)(C(F)(F)F)NC1(O)C(F)(F)F (centres undefined) | 91
40 | Cc1nc2ccccn2c1C(=O)O | 140 to 142
41 | COc1cccc(CCC(=O)O)c1 | 45
42 | COc1ccc(C(O)c2ccc(OC)cc2)cc1 | 70
43 | Nc1cccc(C(=O)O)c1O | 240
44 | O=c1oc2ccccc2c(O)c1C(CC(O)c1ccc(-c2ccc(Br)cc2)cc1)c1ccccc1 (centres undefined) | 199
45 | O=CC(C=O)c1cnccn1 | 202 to 207
46 | CC(=O)OCC(=O)C12OC(C)(C)OC1CC1C3CC(C=O)=C4C=C(OCCCl)CCC4(C)C3(F)C(O)CC12C (centres undefined) | 181
47 | O=C1OC(OC(=O)C(F)(F)F)c2ccccc21 (centres undefined) | 58
48 | O=Cc1ccc2ncccc2c1 | 74 to 75
49 | O=C(C(=O)c1ccc2c3c(cccc13)CC2)c1ccccc1 | 148
50 | O=C(Nc1ccccc1Cl)c1ccccc1 | 99
51 | O=C(c1c(F)c(F)c(F)c(F)c1F)c1c(F)c(F)c(F)c(F)c1F | 93
52 | Nc1nc(N)sc(=S)n1 | 360
53 | O=C(O)C(O)C(=O)O | 157
54 | Nc1cc(C(=O)O)cc([N+](=O)[O-])c1 | 216

Row | SMILES | melting point [°C]
55 | c1cc2occc2c(N2CCNCC2)n1 | 58 to 60
56 | NS(=O)(=O)c1ccc(CCCCCO)cc1 | 86
57 | CC(CO)c1c(O)c(O)c2c(c1O)C(=O)C(=O)C1C2(C)CCC(O)C1(C)C (centres undefined) | 214 to 216
58 | O=CNCC(=O)O | 149
59 | CN(C)C(=O)N(C(=O)c1ccccc1)c1ccc(Cl)c(Cl)c1 | 119
60 | O=C(O)c1cnon1 | 102 to 104
61 | O=C1C2CCC1C1CCC2O1 | 81
62 | CN(C)c1cccc(C(=O)O)c1 | 151
63 | CC#CCCCCCCCC | -30.1
64 | Nc1nc(=O)c2[nH]c(=S)[nH]c2[nH]1 | 300
65 | NC(=O)N1c2ccccc2CCc2ccccc21 | 205
66 | CC1(C)OCC(CO)O1 (centres undefined) | -27
67 | CN1CCc2cc3c(cc2C1C1OC(=O)c2c1ccc1c2OCO1)OCO3 (centres undefined) | 194
68 | CC(C)NCC(O)COc1ccc(O)cc1 (centres undefined) | 128
69 | CC(=O)NCCO | 16
70 | COc1ccc(-c2ccccc2)cc1NC(=O)C(C(F)(F)F)C(F)(F)F | 211
71 | Nc1ccncc1Br | 67 to 71
72 | CC12CCC(/C(=C\Nc3ccccc3C(=O)O)C1=O)C2(C)C (centres undefined) | 176
73 | CN1C(=O)Cc2cc(N)ccc21 | 109 to 112
74 | CC(C=CC1=C(C)CCCC1(C)C)=CC=CC(C)=CC(=O)O | 185
75 | COc1ccc(-c2ccc(S(=O)(=O)NC(C(=O)O)C(C)C)cc2)cc1 (centres undefined) | 178
76 | Cc1c(COC(=O)C2C(C=C(Cl)C(F)(F)F)C2(C)C)cccc1-c1ccccc1 (centres undefined) | 79.6
77 | O=C(O)c1cccnc1Sc1ccccc1 | 165 to 167
78 | Brc1c(Br)c(Br)c2c(c1Br)Oc1c(Br)c(Br)c(Br)c(Br)c1O2 | 376
79 | Nc1ccc(-c2ccc(-c3ccc(N)cc3)cc2)cc1 | 247

Now from value to molecule:

Row | melting point [°C] | SMILES
80 | 203 | Cc1ccc2nc(C)[nH]c2c1
81 | -75 | C#CCC(C)(C)C
82 | 167 | O=Cc1cc(O)ccc1[N+](=O)[O-]
83 | 66 to 68 | CCOC(=O)C(Br)CCC(Br)C(=O)OCC (centres undefined)
84 | 106 to 110 | S=C=Nc1c(Br)cc(Br)cc1Br
85 | 132 | COc1ccc(C=CNC=O)cc1
86 | 279 to 281 | S=c1cc[nH]c(=S)[nH]1
87 | 307 to 308 | Cc1cc(=O)[nH]c2c(/N=N/c3ccc(Cl)cc3)c(N)nn12
88 | 183 to 186 | NC(=O)CCSCCC(N)=O
89 | -101 | CC1=NCCS1
90 | 160 to 170 | O=c1onc2cnc3ccccc3n12
91 | 44 | COC(=O)C1(C)CCC(CCc2ccccc2)C1(C)C (centres undefined)
92 | 162 | CCOc1ccc(N=Nc2ccc(OCC)cc2)cc1
93 | 210 | CC1=NN(c2ccccc2)C(=O)C1Cc1ccc(O)cc1 (centres undefined)
94 | 82 to 83 | Cc1nc(Cl)c(C#N)c(C)c1Cl
95 | 185 to 187 | CN1CCNC(=O)CCSCCC1=O
96 | 29 | CCOC(=O)CCCCC(=O)O
97 | 150 | COc1ccc2c(c1)c(CC(=O)OCC(=O)O)c(C)n2C(=O)c1ccc(Cl)cc1
98 | 122 | Oc1ccc(OCc2ccccc2)cc1
99 | 134 to 136 | Cc1cccc2c1-c1nc3ccccc3nc1-2
100 | 39 | COC(=O)c1ccc(C(=O)OC)c(C(=O)OC)c1
101 | 148 to 152 | O=C1CC[C@@H](COC(c2ccccc2)(c2ccccc2)c2ccccc2)O1
102 | 203 | Nc1ccc(C2(c3ccc(N)cc3)OC(=O)c3ccccc32)cc1
103 | -8 | C1=Cc2ccccc2CC1
104 | -77 | C/C=C/Br

Row | melting point [°C] | SMILES
105 | 29 | COC(=O)c1cccc(C)c1O
106 | 147 to 149 | Cc1csc2sc(C=O)c(C)c12
107 | 74 | O=[N+]([O-])c1ccccc1SCl
108 | 45 to 47 | O=C=Nc1cccc(-c2ncccn2)c1
109 | 45 to 46 | O=Cc1ccc(Oc2ccccn2)cc1
110 | 36 to 37 | CCC(=O)c1ccc(C(F)(F)F)cc1
111 | 200 to 202 | Cc1ccc(C2C(C#N)=C(N)N3C(=C2C#N)Sc2ccccc23)cc1 (centres undefined)
112 | 136 | Ic1ccc(I)c(I)c1I
113 | 90 | NC(=O)OCC(O)COc1ccc(Cl)cc1 (centres undefined)
114 | 138 | O=C(O)CCc1ccc(O)c(O)c1
115 | 251 | O=C1C(C(O)c2ccccc2Cl)C(C(F)(F)F)=NN1c1ccccc1 (centres undefined)
116 | 146 | O=[N+]([O-])c1cc([N+](=O)[O-])c(/C(Cl)=C\c2ccccc2)cc1C(Cl)=Cc1ccccc1
117 | 263 | CC1C(=O)CCC2C1(C)CCC1C2(C)CCC2(C)C3CC(C)(C)CCC3(C)CCC12C (centres undefined)
118 | 145 | c1ccc2c3c([nH]c2c1)CCCCC3
119 | 144 to 146 | COC1=C(OC)C(C(COS(=O)(=O)c2ccc(C)cc2)OS(=O)(=O)c2ccc(C)cc2)OC1=O (centres undefined)
120 | 154 | O=c1oc2ccccc2cc1O
121 | 38 | N#CC=Cc1ccco1
122 | 212 | O=C(Nc1ccc2nn(C3CCCCC3)nc2c1)c1ccccc1
123 | 200 to 203 | O=C(O)CSc1ncccn1
124 | -53 | CCCCCCCCCC(C)CC (centres undefined)
125 | 192 | CC1(C)OC(=O)C(=NNc2cccc([N+](=O)[O-])c2)C(=O)O1
126 | 294 | O=C1c2cc([N+](=O)[O-])ccc2-c2ccc([N+](=O)[O-])cc21
127 | 137 to 138 | Cc1csc2ncnc(Cl)c12
128 | 50 | CCOC(=O)C(CO)(CO)C(=O)OCC
129 | 190 to 192 | O=C(O)CN(CCO)CCO
